Assay results: patent publication US8591892B2, “FTY720 increases CD74 expression and sensitizes cancer cells to anti-CD74 antibody-mediated cell death” (The Ohio State University, priority 2011, dated 2013)

Legend:
[1] = in subjects; cited from earlier work
[2] = rat, 4 mg/kg single IV dose; cited from earlier work
[3] = tested on: Jeko cells engrafted in SCID mice; test: Preclinical model of human MCL in SCID mice, survival; type: in vivo, mouse; conditions: n=10/group, from day 15; FTY720 5 mg/kg i.p. daily 2 weeks; antibodies 15 mg/kg i.p. every three days
Procedure: Evaluation of in vivo therapeutic activity of FTY720 and milatuzumab in the preclinical MCL model. SCID mice were injected i.v. with 40×10^6 JeKo cells and observed daily for signs of tumor burden.
Six to eight-week old female SCID mice (cb17 scid/scid) were purchased from Taconic Farms (Hudson, N.Y.) and maintained in pathogen-free, isolation cages. All animals were depleted of murine NK cells with intra-peritoneal (i.p.) injections of 0.2 mg of rat anti-mouse interleukin-2 receptor β monoclonal antibody (TMβ1) 1 day prior to engraftment with human tumor cell lines and then every week. Forty-eight hours post intravenous injection of 40×10^6 Jeko cells via tail vein, 50 mice were randomly distributed into 10 cages. Animals in groups of ten were treated starting at day 15 after engraftment. […] The third group was treated with FTY720 (5 mg/kg) every day for 2 weeks via i.p. The fourth group received milatuzumab (15 mg/kg) every three days, via i.p. injection. The fifth group received the combination of FTY720 and milatuzumab. Animals were monitored daily for signs of tumor burden, including hind limb paralysis, respiratory distress, weight loss, ruffled coat, and distended abdomen. Body weight was measured weekly for the first 3 weeks and then daily. […]

[4] = tested on: Mino; conditions: single agent, previous dose titration, read-out: LC50 (the source's name); cited from earlier work
[5] = tested on: Jeko-1; conditions: Jeko-1, single agent, previous dose titration; read-out: LC50 (the source's name); cited from earlier work
[6] = tested on: Z-138; conditions: Z-138, single agent, previous dose titration; read-out: LC50 (the source's name); cited from earlier work
[7] = tested on: UPN-1; conditions: UPN-1, single agent, previous dose titration; read-out: LC50 (the source's name); cited from earlier work
[8] = single agents, same dosage and delivery schedule; cited from earlier work
[9] = tested on: primary tumor cells from MCL patients; test: Cell viability by annexin-V/PI staining and flow cytometry; type: cell-based, human; conditions: six MCL patients, 24 hours; FTY720 2.5 μM, immobilized milatuzumab 5 μg/ml
Procedure: FIG. 4. FTY720 sensitizes MCL cell lines and primary patient tumor cells to milatuzumab-mediated cytotoxicity. (A) Four MCL cell lines and primary cells from 6 patients were treated with FTY720 and/or milatuzumab plus cross-linking antibodies at the indicated concentrations. (B) Patient characteristics. (C) Individual patient responses. (D) Representative histograms summarizing patient responses. Cell death was determined by annexin V/PI staining and flow cytometry at 24 hours. Data are shown as the percentage of annexin V−/PI− cells (live cells) and are normalized to untreated controls.
Primary tumor cells were isolated from the peripheral blood/lymph nodes of patients with MCL. All patients studied were diagnosed with MCL according to the World Health Organization (WHO) classification of tumors (Swerdlow, 2008, World Health Organization Classification of Tumours of Haematopoetic and Lymphoid Tissues (ed 4th ed.) Lyon, France, International Agency on Research for Cancer). All samples contained at least 85% of CD19^+/CD20^+ B cells detected by flow cytometry. […]
To assess lysosomal volume, FTY720 treated cells were incubated with LYSOTRACKER™ green DND-26. […] Cell viability was measured at 24 hours by dual staining with annexin-V FITC and propidium iodide (PI). A total of 10,000 events were collected and analyzed using WinMDI. […]

[10] = tested on: CD74 in 3 human AML cell lines; test: Flow cytometry of CD74 with/without permeabilization and IFN-γ; type: cell-based; conditions: 3 AML lines, IFN-γ 40 and 200 U/mL
Procedure: CD74 expression in bone marrow biopsy (BMB) specimens from non-M3 AML patients was evaluated by immunohistochemistry and, for 3 human AML cell lines, by flow cytometry, with/without permeabilization and with/without IFN-γ (40 and 200 U/mL). These cell lines were also tested in proliferation assays for responses to milatuzumab, with/without IFN-γ. In 13/14 BMB specimens, there was moderate to strong CD74 expression by leukemic blasts, which was mostly intracellular, usually with a perinuclear distribution (data not shown). […] IFN-γ induced intracellular CD74 in all 3 lines (from 85%-868%) (not shown).

[11] = tested on: HLA-DR and CD74 in cancer cell lines; test: Flow cytometry of antigen expression after IFN-γ, summary over the panel; type: cell-based; conditions: two-day incubation with IFN-γ, Tables 4 and 5
Procedure: We examined whether the ability of anti-CD74 MAbs to kill cancer cells can be increased by using IFN-γ as an inducer of antigen expression. Using a panel of diverse cancer cell lines (including NHL, MM, GBM, and pancreatic and colonic carcinomas), we examined IFN-γ-induced changes in surface and cytoplasmic CD74 expression. Sensitivity of the malignant cells to milatuzumab was assessed with and without IFN-γ by cytotoxicity assays.
Expression of CD74, HLA-DR, and carcinoembryonic antigen (CEACAM5) was determined in untreated cells and cells exposed to 200 U of IFN-γ for 48 h by flow cytometry. Cells were stained with directly labeled MAbs in comparison to a directly labeled human IgG control. Antibodies were labeled using ALEXA FLUOR® 488 (Invitrogen, Carlsbad, Calif.). For determination of cytoplasmic antigen expression, cells were permeabilized prior to staining using the BD CYTOFIX/CYTOPERM™ kit (BD Biosciences, San Jose, Calif.).
Two-day incubation with IFN-γ increased surface and cytoplasmic expression of CD74 and HLA-DR (Table 4, Table 5). In all 4 colon cancer lines, IFN-γ increased cytoplasmic expression of both antigens, and surface expression of HLA-DR in ¾ and CD74 in 2/4 (Table 4, Table 5). Upregulation of HLA-DR and CD74 ranged from 23-3700% (Table 4, Table 5).

Molecule: veltuzumab: humanized IgG1 antibody against CD20
- immunogenicity [1]: less immunogenic in subjects than rituximab

Molecule: CCCCCCCCc1ccc(CCC(N)(CO)CO)cc1 [FTY720, fingolimod]
- maximum plasma concentration [2]: 3.5 µM
- median survival [3]: 31 days
- CC50 [4]: 7.5 µM
- CC50 [5]: 12.5 µM
- CC50 [6]: 7.5 µM
- CC50 [7]: 7.5 µM
- weight loss or other side effects [8]: did not cause any observed weight loss or other significant side effects
- average cell death [9]: 47%

B1: IFN-γ: interferon-γ, agent inducing CD74 expression (protein, UniProt P01579 24-161, looked up)
Interferon gamma: QDPYVKEAENLKKYFNAGHSDVADNGTLFLGILKNWKEESDRKIMQSQIVSFYFKLFKNFKDDQSIQKSVETIKEDMNVKFFNSNKKKRDDFEKLTNYSVTDLNVQRKAIHELIQVMAELSPAAKTGKRKRSQMLFRG
- upregulation of surface CD74 [10]: 69-117%
- upregulation of HLA-DR and CD74 [11]: 23-3700%
